# Patent publication US20250235543A1, “MODIFIED PROTEINS AND PROTEIN DEGRADERS” (Cullgen (Shanghai), Inc., priority 2021, published 2025)
# Read-outs that look alike come from different tables or passages of the source.
# Tests used:
# cyclin D1 = assay: Cyclin D1 percentage degradation in Calu-1 cells (immunoblotting); assay type: cell-based; conditions: 16 hours
# How it was run: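 Cells were rinsed once in cold PBS and lysed in cold RIPA buffer containing protease and phosphatase inhibitors, with gentle agitation at 4° C. for 30 min. Lysates were spun at 13,000 rpm for 10 min at 4° C., protein was measured by BCA, and samples were boiled in Laemmli buffer at 99° C. for 5 min before SDS-PAGE immunoblotting.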
# CDK4 = biological target: T1, CDK4 (Homo sapiens, UniProt P11802); assay: CDK4 percentage degradation in Calu-1 cells (immunoblotting); assay type: cell-based; conditions: for inhibition at 0.2 µM: read-out: CDK4 Degradation (200 nM); for inhibition at 10 µM: read-out: CDK4 Degradation (10 μM)
# T1 construct: endogenous in cells; host or cells: Calu-1
# How it was run: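 Cultured cells were rinsed once in cold PBS and lysed in cold RIPA buffer containing protease and phosphatase inhibitors, with gentle agitation at 4° C. for 30 min. Lysates were centrifuged at 13,000 rpm for 10 min at 4° C., and protein was quantified by BCA. Samples were then separated by SDS-PAGE, detected with ECL, and the CDK4 bands quantified in Image Lab.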
# T1 sequence (P11802 2-303 limits assumed): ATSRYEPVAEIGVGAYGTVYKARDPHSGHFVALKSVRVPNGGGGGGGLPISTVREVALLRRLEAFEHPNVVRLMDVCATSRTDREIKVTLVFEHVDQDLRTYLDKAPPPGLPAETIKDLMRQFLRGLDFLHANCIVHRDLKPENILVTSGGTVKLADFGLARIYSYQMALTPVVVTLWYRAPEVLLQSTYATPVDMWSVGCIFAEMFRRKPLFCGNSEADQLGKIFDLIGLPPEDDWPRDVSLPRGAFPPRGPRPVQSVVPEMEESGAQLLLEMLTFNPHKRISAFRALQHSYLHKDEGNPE
# T1 sequence (P24385 whole entry partner): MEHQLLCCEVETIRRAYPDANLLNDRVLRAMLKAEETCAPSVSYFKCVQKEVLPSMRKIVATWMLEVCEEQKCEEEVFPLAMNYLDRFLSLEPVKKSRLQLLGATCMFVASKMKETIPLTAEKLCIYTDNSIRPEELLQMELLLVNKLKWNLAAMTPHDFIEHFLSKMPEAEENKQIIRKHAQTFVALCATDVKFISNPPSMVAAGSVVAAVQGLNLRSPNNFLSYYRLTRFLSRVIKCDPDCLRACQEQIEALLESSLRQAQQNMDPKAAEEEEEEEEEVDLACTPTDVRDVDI
# T1 sequence (Q16531 2-1140 limits assumed, further chain): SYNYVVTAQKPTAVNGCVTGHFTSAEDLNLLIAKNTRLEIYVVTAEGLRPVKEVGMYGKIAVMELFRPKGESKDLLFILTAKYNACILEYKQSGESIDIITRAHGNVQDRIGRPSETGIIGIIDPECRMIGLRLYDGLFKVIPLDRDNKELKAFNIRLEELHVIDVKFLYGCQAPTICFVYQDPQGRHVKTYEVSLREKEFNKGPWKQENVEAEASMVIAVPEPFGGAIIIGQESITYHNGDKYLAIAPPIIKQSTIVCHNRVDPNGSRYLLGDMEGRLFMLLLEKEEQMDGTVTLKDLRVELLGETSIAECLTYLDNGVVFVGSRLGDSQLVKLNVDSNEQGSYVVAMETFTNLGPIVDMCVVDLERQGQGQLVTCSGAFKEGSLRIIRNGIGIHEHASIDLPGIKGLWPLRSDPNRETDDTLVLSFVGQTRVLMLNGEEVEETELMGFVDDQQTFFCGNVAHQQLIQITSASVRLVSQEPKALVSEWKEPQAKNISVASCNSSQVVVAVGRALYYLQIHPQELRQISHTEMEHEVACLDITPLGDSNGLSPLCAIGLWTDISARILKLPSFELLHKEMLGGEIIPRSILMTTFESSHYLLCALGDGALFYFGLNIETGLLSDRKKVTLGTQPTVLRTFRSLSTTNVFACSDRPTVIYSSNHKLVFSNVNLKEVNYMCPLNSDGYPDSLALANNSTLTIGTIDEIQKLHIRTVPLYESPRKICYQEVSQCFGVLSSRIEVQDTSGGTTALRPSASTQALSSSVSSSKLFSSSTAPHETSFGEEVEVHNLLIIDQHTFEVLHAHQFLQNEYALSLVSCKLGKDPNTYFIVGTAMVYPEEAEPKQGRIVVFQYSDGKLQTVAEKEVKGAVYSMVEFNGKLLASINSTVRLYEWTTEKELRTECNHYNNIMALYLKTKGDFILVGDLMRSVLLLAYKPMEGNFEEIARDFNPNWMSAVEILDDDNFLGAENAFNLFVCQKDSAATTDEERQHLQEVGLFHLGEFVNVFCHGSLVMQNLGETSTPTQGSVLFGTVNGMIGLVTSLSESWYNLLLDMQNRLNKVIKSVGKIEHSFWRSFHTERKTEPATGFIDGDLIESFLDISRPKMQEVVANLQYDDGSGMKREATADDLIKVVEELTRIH
"inhibition at 0.2 µM (CDK4; Calu-1 cells, 200 nM, 16 hours) [%]","inhibition at 10 µM (CDK4; Calu-1 cells, 16 hours) [%]",Compound,CyclinD1 Degradation (200 nM) (cyclin D1),"inhibition at 0.2 µM (CDK4; Calu-1, 16 h) [%]",CyclinD1 Degradation (10 μM) (cyclin D1)
–,–,"CC(=O)c1c(C)c2cnc(Nc3ccc(N4CCN(CC(=O)NCCOCCOCCOCCOCCOCCNc5ccc(C(=O)Nc6ccccc6)c(C)c5)CC4)cn3)nc2n(C2CCCC2)c1=O [CPD-027, 4-((1-(4-(6-((6-Acetyl-8-cyclopentyl-5-methyl-7-oxo-7,8-dihydropyrido[2,3-d]pyrimidin-2-yl)amino)pyridin-3-yl)piperazin-1-yl)-2-oxo-6,9,12,15,18-pentaoxa-3-azaicosan-20-yl)amino)-2-methyl-N-phenylbenzamide]",D (protein percentage degradation <30%),< 30,–
< 30,–,"CC(=O)c1c(C)c2cnc(Nc3ccc(N4CCN(CC(=O)NCCOCCOCCOCCOCCNc5ccc(C)c(C(=O)Nc6nc(C)c(C)s6)c5)CC4)cn3)nc2n(C2CCCC2)c1=O [CPD-118, 5-((1-(4-(6-((6-Acetyl-8-cyclopentyl-5-methyl-7-oxo-7,8-dihydropyrido[2,3-d]pyrimidin-2-yl)amino)pyridin-3-yl)piperazin-1-yl)-2-oxo-6,9,12,15-tetraoxa-3-azaheptadecan-17-yl)amino)-N-(4,5-dimethylthiazol-2-yl)-2-methylbenzamide]",D (protein percentage degradation <30%),–,–
–,–,"CC(=O)c1c(C)c2cnc(Nc3ccc(N4CCN(C(=O)CCCCNc5ccc(C)c(C(=O)Nc6nc(C)c(C)s6)c5)CC4)cn3)nc2n(C2CCCC2)c1=O [CPD-108, 5-((5-(4-(6-((6-Acetyl-8-cyclopentyl-5-methyl-7-oxo-7,8-dihydropyrido[2,3-d]pyrimidin-2-yl)amino)pyridin-3-yl)piperazin-1-yl)-5-oxopentyl)amino)-N-(4,5-dimethylthiazol-2-yl)-2-methylbenzamide]",D (protein percentage degradation <30%),< 30,–
< 30,–,"CC(=O)c1c(C)c2cnc(Nc3ccc(N4CCN(CC(=O)NCCCCCCNc5ccc(C)c(C(=O)Nc6nc(C)c(C)s6)c5)CC4)cn3)nc2n(C2CCCC2)c1=O [CPD-094, 5-((6-(2-(4-(6-((6-Acetyl-8-cyclopentyl-5-methyl-7-oxo-7,8-dihydropyrido[2,3-d]pyrimidin-2-yl)amino)pyridin-3-yl)piperazin-1-yl)acetamido)hexyl)amino)-N-(4,5-dimethylthiazol-2-yl)-2-methylbenzamide]",D (protein percentage degradation <30%),–,–
–,< 30,"Cc1nc(NC(=O)c2ccccc2NC(=O)CCCNC(=O)CN2CCN(c3ccc(Nc4ncc(F)c(-c5cc(F)c6nc(C)n(C(C)C)c6c5)n4)nc3)CC2)sc1C [CPD-302, N-(4,5-Dimethylthiazol-2-yl)-2-(4-(2-(4-(6-((5-fluoro-4-(4-fluoro-1-isopropyl-2-methyl-1H-benzo[d]imidazol-6-yl)pyrimidin-2-yl)amino)pyridin-3-yl)piperazin-1-yl)acetamido)butanamido)benzamide]",–,–,D (protein percentage degradation < 30%)
50 to 80,–,"CC(=O)c1c(C)c2cnc(Nc3ccc(N4CCN(CC(=O)NCCOCCOCCC(=O)Nc5ccccc5C(=O)Nc5ccn(C)n5)CC4)cn3)nc2n(C2CCCC2)c1=O [CPD-068, 2-(3-(2-(2-(2-(4-(6-((6-Acetyl-8-cyclopentyl-5-methyl-7-oxo-7,8-dihydropyrido[2,3-d]pyrimidin-2-yl)amino)pyridin-3-yl)piperazin-1-yl)acetamido)ethoxy)ethoxy)propanamido)-N-(1-methyl-1H-pyrazol-3-yl)benzamide]",A (protein percentage degradation >=80%),–,–
–,< 30,"Cc1nc(NC(=O)c2ccccc2NC(=O)CCOCCOCCOCCNC(=O)CN2CCN(Cc3ccc(Nc4ncc(F)c(-c5cc(F)c6nc(C)n(C(C)C)c6c5)n4)nc3)CC2)sc1C [CPD-282, N-(4,5-Dimethylthiazol-2-yl)-2-(1-(4-((6-((5-fluoro-4-(4-fluoro-1-isopropyl-2-methyl-1H-benzo[d]imidazol-6-yl)pyrimidin-2-yl)amino)pyridin-3-yl)methyl)piperazin-1-yl)-2-oxo-6,9,12-trioxa-3-azapentadecan-15-amido)benzamide]",–,–,D (protein percentage degradation < 30%)
